≈ marks a conversion by molar mass, not a printed value. *1 amine or outer side, *2 acyl side, *3 side chain or, on linkers, in order; H or OH if unused. Where a SMILES comes first, the peptide text is derived from it. [ ]: non-standard residue; d: D form. The star is where a group is joined. X19 = CCCC[C@@H](OC[C@@H](C)N[*:1])[C@@H](CC1CC1)C(=O)[*:2]; X6 = CCCCCC[C@@H](OC[C@@H](CC)N[*:1])[C@@H](C)C(=O)[*:2]; X1 = CCCCCC[C@@H](C(=O)[*:2])[C@@H](C)OC[C@@H](C)N[*:1]; X17 = CCCCCC[C@@H](O[C@H](C)CN[*:1])[C@@H](C)C(=O)[*:2]; X2 = CCCCCC[C@@H](OC[C@@H](C)N[*:1])[C@@H](C)C(=O)[*:2]; Cyclobutyl(trans-3-NH2) = N[C@H]1C[C@H](*)C1; Gly(cHept) = N[C@H](C(=O)O)C1CCCCCC1; aThr = C[C@H](O)[C@H](N)C(=O)O; NMeL = CN[C@@H](CC(C)C)C(=O)O; Chg = N[C@H](C(=O)O)C1CCCCC1; NMeNva = CCC[C@H](NC)C(=O)O; X8 = NC[C@H]1C[C@H](*)C1; Dap = NC[C@H](N)C(=O)O; Ethyl(2-NH2) = NCC*; X15 = OC[C@@H](O)C*

The subject of the test is Escherichia coli (E. coli) strain CFT073 ATCC 700928. Type of test: cell-based. The note with it: ATCC 700928, 22 h. In a few lines: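 MICs were read after 22 h at 35 °C, with bacteria added to a final OD600 of 0.0005. Compounds were serially diluted 2-fold over ten concentrations from a top of 64, 4, 0.5 or 0.13 μg/mL (protocols 1–4). Medium was cation-adjusted Mueller Hinton II broth plus 0.002% Tween-80, following CLSI M07-A8.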
As usually defined, the MIC is the lowest concentration found to suppress growth. A lower MIC goes with a more susceptible organism. Turning to `CCC[C@H]1C(=O)N[C@@H](C2CCCCCC2)C(=O)N[C@@H](CN)C(=O)N[C@@H]([C@H](C)O)C(=O)NCC(=O)O[C@H](CC2CC3CCC2C3)[C@@H](C)C(=O)N1C` (stereo partly drawn) [Example 134, (6S,9S,12S,15S,18R,19R)-9-(aminomethyl)-12-cycloheptyl-16,18-dimethyl-19-(norbornan-2-ylmethyl)-15-propyl-6-[(1S)-1-hydroxyethyl]-1-oxa-4,7,10,13,16-pentazacyclononadecane-2,5,8,11,14,17-hexone], the MIC worked out at 0.78 µM (≈ 0.55 µg/mL). That is a sub-micromolar value.
The compound `CCCCCC[C@H]1OC(=O)CNC(=O)[C@H]([C@H](C)O)NC(=O)[C@H](CN)NC(=O)[C@H](C2CCCCC2)NC(=O)[C@H](CC(C)C)N(C)C(=O)[C@@H]1CC1CCCCC1` [Example 135, (6S,9S,12S,15S,18R,19R)-9-(aminomethyl)-12-cyclohexyl-18-(cyclohexylmethyl)-19-hexyl-15-isobutyl-16-methyl-6-[(1S)-1-hydroxyethyl]-1-oxa-4,7,10,13,16-pentazacyclononadecane-2,5,8,11,14,17-hexone] came in with an MIC of 3.7 µM (≈ 2.82 µg/mL).
In turn, `CCCCCC[C@H]1OC[C@@H](C)NC(=O)[C@H](COC[C@H](O)CO)NC(=O)[C@H](CN)NC(=O)[C@H](C2CCCCC2)NC(=O)[C@H](CC(C)C)N(C)C(=O)[C@@H]1C` [Example 136, (3R,6S,9S,12S,15S,18R,19R)-9-(aminomethyl)-12-cyclohexyl-19-hexyl-15-isobutyl-3,16,18-trimethyl-6-[[(2R)-2,3-dihydroxypropoxy]methyl]-1-oxa-4,7,10,13,16-pentazacyclononadecane-5,8,11,14,17-pentone] (cyclo([Chg][Dap]S(X15)[X2][NMeL])) displayed an MIC of 8.8 µM (≈ 6.52 µg/mL).
Under `CCC[C@H]1C(=O)N[C@@H](C2CCCCCC2)C(=O)N[C@@H](CN)C(=O)N[C@@H](CO[C@H]2C[C@H](N)C2)C(=O)NCC(=O)O[C@H](CCC2CC3CCC2C3)[C@@H](C)C(=O)N1C` (stereo partly drawn) [Example 137, (6S,9S,12S,15S,18R,19R)-6-[(3-aminocyclobutoxy)methyl]-9-(aminomethyl)-12-cycloheptyl-16,18-dimethyl-19-(2-norbornan-2-ylethyl)-15-propyl-1-oxa-4,7,10,13,16-pentazacyclononadecane-2,5,8,11,14,17-hexone] stands 0.78 µM (≈ 0.604 µg/mL).
Under `CCCCCC[C@H]1OC[C@@H](C)NC(=O)[C@H](COCCN)NC(=O)[C@H](CN)NC(=O)[C@H](C2CCCCC2)NC(=O)[C@H](CC(C)C)N(C)C(=O)[C@@H]1C` [Example 138, (3R,6S,9S,12S,15S,18R,19R)-6-(2-aminoethoxymethyl)-9-(aminomethyl)-12-cyclohexyl-19-hexyl-15-isobutx1-3,16,18-trimethyl-1-oxa-4,7,10,13,16-pentazacyclononadecane-5,8,11,14,17-pentone] (cyclo([Chg][Dap]S(Ethyl(2-NH2))[X2][NMeL])) stands 12 µM (≈ 8.52 µg/mL); under `CCCCCC[C@H]1OC(=O)CNC(=O)[C@H](CNC(=O)CN)NC(=O)[C@H](CN)NC(=O)[C@H](C2CCCCC2)NC(=O)[C@H](CC(C)C)N(C)C(=O)[C@@H]1C` [Example 139, 2-amino-N-[[(6S,9S,12S,15S,18R,19R)-9-(aminomethyl)-12-cyclohexyl-19-hexyl-15-isobutyl-16,18-dimethyl-2,5,8,11,14,17-hexaoxo-1-oxa-4,7,10,13,16-pentazacyclononadec-6-yl]methyl]acetamide], 18 µM (≈ 13 µg/mL).
As to `CCCCCC[C@H]1O[C@H](C)CNC(=O)[C@H]([C@H](C)O)NC(=O)[C@H](CN)NC(=O)[C@H](C2CCCCC2)NC(=O)[C@H](CC(C)C)N(C)C(=O)[C@@H]1C` [Example 140, (2R,6S,9S,12S,15S,18R,19R)-9-(aminomethyl)-12-cyclohexyl-19-hexyl-15-isobutyl-2,16,18-trimethyl-6-[(1S)-1-hydroxyethyl]-1-oxa-4,7,10,13,16-pentazacyclononadecane-5,8,11,14,17-pentone] (cyclo([Chg][Dap][aThr][X17][NMeL])), the MIC is 35 µM (≈ 23.8 µg/mL).
For `CCC[C@H]1C(=O)N[C@@H](C2CCCCCC2)C(=O)N[C@@H](CN)C(=O)N[C@@H](CO[C@H]2C[C@H](N)C2)C(=O)NCC(=O)O[C@H](CC2CC3CCC2C3)[C@@H](C)C(=O)N1C` (stereo partly drawn) [Example 141, (6S,9S,12S,15S,18R,19R)-6-[(3-aminocyclobutoxy)methyl]-9-(aminomethyl)-12-cycloheptyl-16,18-dimethyl-19-(norbornan-2-ylmethyl)-15-propyl-1-oxa-4,7,10,13,16-pentazacyclononadecane-2,5,8,11,14,17-hexone], the MIC amounted to 2.2 µM (≈ 1.67 µg/mL).
Under `CCCCCC[C@H]1OC(=O)CNC(=O)[C@H]([C@H](C)O)NC(=O)[C@H](CN)NC(=O)[C@H](C2Cc3ccccc3C2)NC(=O)[C@H](CCC)N(C)C(=O)[C@@H]1C` [Example 142, (6S,9S,12S,15S,18R,19R)-9-(aminomethyl)-19-hexyl-12-indan-2-yl-16,18-dimethyl-15-propyl-6-[(1S)-1-hydroxyethyl]-1-oxa-4,7,10,13,16-pentazacyclononadecane-2,5,8,11,14,17-hexone] stands 8.8 µM (≈ 6.17 µg/mL); under `CCCCCC[C@H]1OC(=O)CNC(=O)[C@H](CNC(=O)CN(C)C)NC(=O)[C@H](CN)NC(=O)[C@H](C2CCCCC2)NC(=O)[C@H](CC(C)C)N(C)C(=O)[C@@H]1C` [Example 143, 2-(dimethylamino)-N-[[(6S,9S,12S,15S,18R,19R)-9-(aminomethyl)-12-cyclohexyl-19-hexyl-15-isobutyl-16,18-dimethyl-2,5,8,11,14,17-hexaoxo-1-oxa-4,7,10,13,16-pentazacyclononadec-6-yl]methyl]acetamide], 25 µM (≈ 18.8 µg/mL); under `CCCCCC[C@H]1OC[C@@H](CC)NC(=O)[C@H]([C@H](C)O)NC(=O)[C@H](CN)NC(=O)[C@H](C2CCCCC2)NC(=O)[C@H](CC(C)C)N(C)C(=O)[C@@H]1C` [Example 144, (3R,6S,9S,12S,15S,18R,19R)-9-(aminomethyl)-12-cyclohexyl-3-ethyl-19-hexyl-15-isobutyl-16,18-dimethyl-6-[(1S)-1-hydroxyethyl]-1-oxa-4,7,10,13,16-pentazacyclononadecane-5,8,11,14,17-pentone] (cyclo([Chg][Dap][aThr][X6][NMeL])), 2.2 µM (≈ 1.53 µg/mL).
In the case of `CCCCCC[C@H]1OC(=O)CNC(=O)[C@H](CNC(=O)CCN)NC(=O)[C@H](CN)NC(=O)[C@H](C2CCCCC2)NC(=O)[C@H](CC(C)C)N(C)C(=O)[C@@H]1C` [Example 145, 3-amino-N-[[(6S,9S,12S,15S,18R,19R)-9-(aminomethyl)-12-cyclohexyl-19-hexyl-15-isobutyl-16,18-dimethyl-2,5,8,11,14,17-hexaoxo-1-oxa-4,7,10,13,16-pentazacyclononadec-6-yl]methyl]propanamide] it was 12 µM (≈ 8.84 µg/mL).
The compound `CCCCCC[C@H]1OC[C@@H](C)NC(=O)[C@H](CO[C@H]2C[C@H](N)C2)NC(=O)[C@H](CN)NC(=O)[C@H](C2CCCCCC2)NC(=O)[C@H](CCC)N(C)C(=O)[C@@H]1C` [Example 146, (3R,6S,9S,12S,15S,18R,19R)-6-[(3-aminocyclobutoxy)methyl]-9-(aminomethyl)-12-cycloheptyl-19-hexyl-3,16,18-trimethyl-15-propyl-1-oxa-4,7,10,13,16-pentazacyclononadecane-5,8,11,14,17-pentone] (cyclo([Dap]S(Cyclobutyl(trans-3-NH2))[X2][NMeNva][Gly(cHept)])) yielded an MIC of 6.3 µM (≈ 4.64 µg/mL). Against the preceding compound, the MIC is about 1.9-fold lower.
For `CCCC[C@H]1OC[C@@H](C)NC(=O)[C@H]([C@H](C)O)NC(=O)[C@H](CN)NC(=O)[C@H](C2CCCCC2)NC(=O)[C@H](CCC)N(C)C(=O)[C@@H]1CC1CC1` [Example 147, (3R,6S,9S,12S,15S,18R,19R)-9-(Aminomethyl)-19-butyl-12-cyclohexyl-18-(cyclopropylmethyl)-6-((S)-1-hydroxyethyl)-3,16-dimethyl-15-propyl-1-oxa-4,7,10,13,16-pentaazacyclononadecane-5,8,11,14,17-pentaone] (cyclo([Chg][Dap][aThr][X19][NMeNva])), the MIC was determined as 12 µM (≈ 8.15 µg/mL).
`CCCCCC[C@H]1OC[C@@H](C)NC(=O)[C@H]([C@H](C)O)NC(=O)[C@H](CN)NC(=O)[C@H](C2CCN(c3ccccc3)CC2)NC(=O)[C@H](CC(C)C)N(C)C(=O)[C@@H]1C` [Example 148, (3R,6S,9S,12S,15S,18R,19R)-9-(Aminomethyl)-19-hexyl-6-((S)-1-hydroxyethyl)-15-isobutyl-3,16,18-trimethyl-12-(1-phenylpiperidin-4-yl)-1-oxa-4,7,10,13,16-pentaazacyclononadecane-5,8,11,14,17-pentaone] came in with an MIC of 8.8 µM (≈ 6.67 µg/mL).
The compound `CCCCCC[C@H]1OC[C@@H](C)NC(=O)[C@H](CO[C@H]2C[C@H](CN)C2)NC(=O)[C@H](CN)NC(=O)[C@H](C2CCCCC2)NC(=O)[C@H](CC(C)C)N(C)C(=O)[C@@H]1C` [Example 149, (3R,6S,9S,12S,15S,18R,19R)-9-(Aminomethyl)-6-(((1r,3,S)-3-(aminomethyl)cyclobutoxy)methyl)-12-cyclohexyl-19-hexyl-15-isobutyl-3,16,18-trimethyl-1-oxa-4,7,10,13,16-pentaazacyclononadecane-5,8,11,14,17-pentaone] (cyclo([Chg][Dap]S(X8)[X2][NMeL])) had an MIC of 8.8 µM (≈ 6.6 µg/mL).
In the case of `CCCCCC[C@H]1C(=O)N(C)[C@@H](CCC)C(=O)N[C@@H](C2CCCCC2)C(=O)N[C@@H](CN)C(=O)N[C@@H]([C@H](C)O)C(=O)N[C@H](C)CO[C@@H]1C` [Example 150, (3R,6S,9S,12S,15S,18R,19R)-9-(Aminomethyl)-12-cyclohexyl-18-hexyl-6-((S)-1-hydroxyethyl)-3,16,19-trimethyl-15-propyl-1-oxa-4,7,10,13,16-pentaazacyclononadecane-5,8,11,14,17-pentaone] (cyclo([Chg][Dap][aThr][X1][NMeNva])) it was 25 µM (≈ 16.7 µg/mL).

The values above are taken from patent US11279735B2, “Cyclic peptide antibiotics” (priority 2017, dated 2022).
